Experimental data as given in patent publication US10670605B2, “Cysteine reactive probes and uses thereof” (The Scripps Research Institute, priority 2015, dated 2020).

How the values were obtained:
Test in all cases: Competitive isoTOP-ABPP in situ (fragment-treated cells)
Type in all cases: cell-based
Conditions in all cases: 200 μM, insitu, 231
[1] = target: T1, cysteines in MDA-MB-231 and Ramos cells (Homo sapiens, UniProt Q99497)
T1 sequence (Q99497 1-189): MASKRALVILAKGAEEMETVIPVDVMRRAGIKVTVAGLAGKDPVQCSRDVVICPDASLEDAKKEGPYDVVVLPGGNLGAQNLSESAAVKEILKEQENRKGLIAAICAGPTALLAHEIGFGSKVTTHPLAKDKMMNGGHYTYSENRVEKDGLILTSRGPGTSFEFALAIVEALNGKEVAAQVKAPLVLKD

[2] = target: cysteines in MDA-MB-231 and Ramos cells (Homo sapiens, UniProt P38606)
Sequence of cysteines in MDA-MB-231 and Ramos cells (Homo sapiens, UniProt P38606) (P38606 whole entry): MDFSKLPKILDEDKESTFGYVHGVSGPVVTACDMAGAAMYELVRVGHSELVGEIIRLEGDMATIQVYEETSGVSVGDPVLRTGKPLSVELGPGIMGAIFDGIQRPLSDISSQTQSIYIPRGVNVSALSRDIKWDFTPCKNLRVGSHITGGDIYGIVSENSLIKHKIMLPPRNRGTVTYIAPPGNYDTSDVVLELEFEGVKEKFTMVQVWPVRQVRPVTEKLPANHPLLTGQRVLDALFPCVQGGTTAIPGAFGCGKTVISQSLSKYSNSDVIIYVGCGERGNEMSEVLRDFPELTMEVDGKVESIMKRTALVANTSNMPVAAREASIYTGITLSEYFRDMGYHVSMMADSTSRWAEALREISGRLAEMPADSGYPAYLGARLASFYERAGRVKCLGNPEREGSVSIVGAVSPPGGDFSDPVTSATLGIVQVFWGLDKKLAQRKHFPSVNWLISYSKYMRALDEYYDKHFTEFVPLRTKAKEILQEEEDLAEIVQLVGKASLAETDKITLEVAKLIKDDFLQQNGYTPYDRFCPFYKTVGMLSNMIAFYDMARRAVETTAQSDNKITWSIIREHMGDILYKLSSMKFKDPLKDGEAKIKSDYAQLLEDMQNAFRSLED

[3] = target: T2, cysteines in MDA-MB-231 and Ramos cells (Homo sapiens, UniProt Q15084)
T2 sequence (Q15084 20-440): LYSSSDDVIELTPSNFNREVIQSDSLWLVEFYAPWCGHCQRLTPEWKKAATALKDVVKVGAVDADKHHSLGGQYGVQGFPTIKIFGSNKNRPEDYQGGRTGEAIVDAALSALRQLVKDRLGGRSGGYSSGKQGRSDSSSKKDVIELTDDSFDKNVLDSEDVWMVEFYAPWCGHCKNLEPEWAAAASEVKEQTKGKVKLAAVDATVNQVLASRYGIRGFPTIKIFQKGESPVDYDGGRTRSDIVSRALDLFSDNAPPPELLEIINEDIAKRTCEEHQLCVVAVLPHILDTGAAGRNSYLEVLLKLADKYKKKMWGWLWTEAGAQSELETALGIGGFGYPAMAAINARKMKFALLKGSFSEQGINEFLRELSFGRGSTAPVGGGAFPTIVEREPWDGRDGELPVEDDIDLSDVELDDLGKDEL

[4] = target: T3, cysteines in MDA-MB-231 and Ramos cells (Homo sapiens, UniProt Q99439)
T3 sequence (Q99439 1-309): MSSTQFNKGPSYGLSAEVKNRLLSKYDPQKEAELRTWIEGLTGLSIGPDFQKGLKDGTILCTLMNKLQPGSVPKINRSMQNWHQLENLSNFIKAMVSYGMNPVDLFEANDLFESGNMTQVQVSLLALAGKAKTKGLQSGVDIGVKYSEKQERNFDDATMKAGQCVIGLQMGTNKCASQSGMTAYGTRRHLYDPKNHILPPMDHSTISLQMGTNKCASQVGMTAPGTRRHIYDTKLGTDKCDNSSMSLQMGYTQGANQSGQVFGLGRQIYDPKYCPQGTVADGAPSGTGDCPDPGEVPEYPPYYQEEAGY

[5] = target: T4, cysteines in MDA-MB-231 and Ramos cells (Homo sapiens, UniProt Q9ULW0)
T4 sequence (Q9ULW0 1-747): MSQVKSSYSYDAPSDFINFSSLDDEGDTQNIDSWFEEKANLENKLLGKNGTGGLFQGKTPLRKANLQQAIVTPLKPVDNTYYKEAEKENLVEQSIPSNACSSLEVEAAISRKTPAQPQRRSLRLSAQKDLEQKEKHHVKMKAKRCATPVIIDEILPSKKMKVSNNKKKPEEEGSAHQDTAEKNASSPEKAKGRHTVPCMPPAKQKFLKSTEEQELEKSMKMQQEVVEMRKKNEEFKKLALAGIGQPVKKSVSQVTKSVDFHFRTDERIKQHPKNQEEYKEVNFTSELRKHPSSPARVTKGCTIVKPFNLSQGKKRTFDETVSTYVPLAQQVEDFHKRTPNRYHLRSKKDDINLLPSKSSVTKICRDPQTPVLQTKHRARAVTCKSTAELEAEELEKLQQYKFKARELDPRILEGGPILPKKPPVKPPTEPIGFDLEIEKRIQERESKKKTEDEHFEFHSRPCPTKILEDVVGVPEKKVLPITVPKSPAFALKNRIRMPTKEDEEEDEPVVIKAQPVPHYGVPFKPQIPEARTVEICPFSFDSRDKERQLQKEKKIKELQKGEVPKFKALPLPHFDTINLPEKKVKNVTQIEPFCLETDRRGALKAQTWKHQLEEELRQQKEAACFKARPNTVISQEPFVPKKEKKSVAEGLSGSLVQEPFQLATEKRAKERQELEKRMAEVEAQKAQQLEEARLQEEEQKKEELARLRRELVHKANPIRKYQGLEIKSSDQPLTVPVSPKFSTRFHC

[6] = target: T5, cysteines in MDA-MB-231 and Ramos cells (Homo sapiens, UniProt P23919)
T5 sequence (P23919 1-212): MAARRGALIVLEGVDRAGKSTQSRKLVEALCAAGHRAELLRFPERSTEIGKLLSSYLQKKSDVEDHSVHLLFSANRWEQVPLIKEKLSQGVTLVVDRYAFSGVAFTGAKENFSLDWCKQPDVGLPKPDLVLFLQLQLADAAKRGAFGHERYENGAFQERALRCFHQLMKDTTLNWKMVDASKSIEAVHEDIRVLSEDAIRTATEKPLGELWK

[7] = target: T6, cysteines in MDA-MB-231 and Ramos cells (Homo sapiens, UniProt P13667)
T6 sequence (P13667 21-645): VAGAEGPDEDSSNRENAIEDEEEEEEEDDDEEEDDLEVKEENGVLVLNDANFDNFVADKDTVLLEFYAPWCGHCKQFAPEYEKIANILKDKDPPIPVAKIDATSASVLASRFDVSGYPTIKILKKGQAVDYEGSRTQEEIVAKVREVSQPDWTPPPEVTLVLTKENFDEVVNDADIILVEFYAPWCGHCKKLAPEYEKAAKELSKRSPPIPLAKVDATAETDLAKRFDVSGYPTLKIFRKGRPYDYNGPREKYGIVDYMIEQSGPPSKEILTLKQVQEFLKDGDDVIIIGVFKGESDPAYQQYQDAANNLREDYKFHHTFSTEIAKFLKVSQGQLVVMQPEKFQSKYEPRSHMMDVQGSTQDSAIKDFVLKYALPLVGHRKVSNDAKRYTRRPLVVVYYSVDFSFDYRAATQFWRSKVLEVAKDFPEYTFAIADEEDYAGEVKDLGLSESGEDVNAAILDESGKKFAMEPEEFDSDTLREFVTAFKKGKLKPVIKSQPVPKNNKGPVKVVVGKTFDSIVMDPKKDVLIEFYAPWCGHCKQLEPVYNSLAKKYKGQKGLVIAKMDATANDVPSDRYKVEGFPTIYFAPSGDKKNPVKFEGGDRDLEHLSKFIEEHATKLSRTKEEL

isoTOP-ABPP ratio Q99497_C106 [1]	isoTOP-ABPP ratio P38606_C138 [2]	isoTOP-ABPP ratio Q15084_C55 [3]	isoTOP-ABPP ratio, Q15084_C190 [3]	isoTOP-ABPP ratio Q99439_C164 [4]	isoTOP-ABPP ratio Q9ULW0_C536 [5]	isoTOP-ABPP ratio P23919_C117 [6]	isoTOP-ABPP ratio P23919_C163 [6]	isoTOP-ABPP ratio P13667_C206 [7]	isoTOP-ABPP ratio P13667_C555 [7]	Structure (SMILES)
1.1	2.1	0.8	1.0	1.5	1.2	4.4	5.7	0.9	0.8	C=CC(=O)Nc1cc(F)c(N2CCN(C(=O)OC(C)(C)C)CC2)c(F)c1 [compound 38]
0.6	0.8	0.9	0.9	0.4	1.2		0.2	1.0	1.0	Cc1ccc(C=C(C#N)C(=O)NCCN2CCOCC2)cc1 [compound 41]
